In ChEMBL document CHEMBL4330101, “Identification of BR101549 as a lead candidate of non-TZD PPARγ agonist for the treatment of type 2 diabetes: Proof-of-concept evaluation and SAR” (Bioorg Med Chem Lett, 2019):

Molecular target: T1, Peroxisome proliferator-activated receptor gamma (Homo sapiens) (UniProt P37231)
T1 sequence (whole entry): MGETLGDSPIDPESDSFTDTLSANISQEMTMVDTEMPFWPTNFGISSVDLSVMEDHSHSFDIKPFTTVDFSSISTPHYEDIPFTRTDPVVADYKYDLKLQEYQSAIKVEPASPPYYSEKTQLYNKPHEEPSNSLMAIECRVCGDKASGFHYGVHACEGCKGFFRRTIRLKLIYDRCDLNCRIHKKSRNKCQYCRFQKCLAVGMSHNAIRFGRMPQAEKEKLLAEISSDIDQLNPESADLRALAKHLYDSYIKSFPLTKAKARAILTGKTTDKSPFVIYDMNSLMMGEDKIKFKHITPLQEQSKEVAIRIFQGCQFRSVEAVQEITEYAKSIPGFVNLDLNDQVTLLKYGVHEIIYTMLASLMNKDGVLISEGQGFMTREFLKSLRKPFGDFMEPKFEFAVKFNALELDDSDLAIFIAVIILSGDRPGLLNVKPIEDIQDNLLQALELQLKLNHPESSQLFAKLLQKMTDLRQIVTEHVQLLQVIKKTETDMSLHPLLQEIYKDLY
Experiment: Agonist activity at human PPARgamma at 1 uM relative to pioglitazone
Conditions: not given

SMILES | max activation
CCCCc1nc(C(C)C)c(CC(=O)OC2CC2)c(=O)n1Cc1ccc(-c2ccccc2-c2noc(=O)[nH]2)cc1 | 89%
CC#CCOC(=O)Cc1c(C)nc(CCCC)n(Cc2ccc(-c3ccccc3-c3noc(=O)[nH]3)cc2)c1=O | 99%
CCCCc1nc(C(C)C)c(CC(=O)OC)c(=O)n1Cc1ccc(-c2ccccc2-c2noc(=O)[nH]2)cc1 | 96%
CCCCc1nc(C)c(CC(=O)OCC2CC2)c(=O)n1Cc1ccc(-c2ccccc2-c2noc(=O)[nH]2)cc1 | 101%
CCCCOC(=O)Cc1c(C(C)C)nc(CCCC)n(Cc2ccc(-c3ccccc3-c3noc(=O)[nH]3)cc2)c1=O | 73%
CCCCc1nc(C(C)C)c(CC(=O)OCC(C)C)c(=O)n1Cc1ccc(-c2ccccc2-c2noc(=O)[nH]2)cc1 | 128%
CCCCOC(=O)Cc1c(C)nc(CCCC)n(Cc2ccc(-c3ccccc3-c3noc(=O)[nH]3)cc2)c1=O | 116%

Test system: not listed separately
Experiment: Stability in human liver microsomes assessed as parent compound remaining after 30 mins
Type: ADME, Microsome
Conditions: read-out: Stability

SMILES | remaining at 0.5 h
CCCCc1nc(C(C)C)c(CC(=O)OC2CC2)c(=O)n1Cc1ccc(-c2ccccc2-c2noc(=O)[nH]2)cc1 | 10.3%
CC#CCOC(=O)Cc1c(C)nc(CCCC)n(Cc2ccc(-c3ccccc3-c3noc(=O)[nH]3)cc2)c1=O | 32%
CCCCc1nc(C(C)C)c(CC(=O)OC)c(=O)n1Cc1ccc(-c2ccccc2-c2noc(=O)[nH]2)cc1 | 10.5%
CCCCc1nc(C)c(CC(=O)OCC2CC2)c(=O)n1Cc1ccc(-c2ccccc2-c2noc(=O)[nH]2)cc1 | 20%
CCCCOC(=O)Cc1c(C(C)C)nc(CCCC)n(Cc2ccc(-c3ccccc3-c3noc(=O)[nH]3)cc2)c1=O | 7.1%
CCCCc1nc(C(C)C)c(CC(=O)OCC(C)C)c(=O)n1Cc1ccc(-c2ccccc2-c2noc(=O)[nH]2)cc1 | 8.8%
CCCCOC(=O)Cc1c(C)nc(CCCC)n(Cc2ccc(-c3ccccc3-c3noc(=O)[nH]3)cc2)c1=O | 2.8%

Molecular target: T2, Peroxisome proliferator-activated receptor gamma (Homo sapiens, UniProt P37231)
T2 sequence (P37231 whole entry): T1 sequence (whole entry)
Experiment: Agonist activity at human PPARgamma
Conditions: not given

SMILES | EC50
CCCCc1nc(C(C)C)c(CC(=O)OC2CC2)c(=O)n1Cc1ccc(-c2ccccc2-c2noc(=O)[nH]2)cc1 | 1360 nM
CC#CCOC(=O)Cc1c(C)nc(CCCC)n(Cc2ccc(-c3ccccc3-c3noc(=O)[nH]3)cc2)c1=O | 2530 nM
CCCCc1nc(C(C)C)c(CC(=O)OC)c(=O)n1Cc1ccc(-c2ccccc2-c2noc(=O)[nH]2)cc1 | 2620 nM
CCCCc1nc(C)c(CC(=O)OCC2CC2)c(=O)n1Cc1ccc(-c2ccccc2-c2noc(=O)[nH]2)cc1 | 1810 nM
CCCCOC(=O)Cc1c(C(C)C)nc(CCCC)n(Cc2ccc(-c3ccccc3-c3noc(=O)[nH]3)cc2)c1=O | 1000 nM
CCCCc1nc(C(C)C)c(CC(=O)OCC(C)C)c(=O)n1Cc1ccc(-c2ccccc2-c2noc(=O)[nH]2)cc1 | 1230 nM
CCCCOC(=O)Cc1c(C)nc(CCCC)n(Cc2ccc(-c3ccccc3-c3noc(=O)[nH]3)cc2)c1=O | 2250 nM

Test system: not listed separately
Experiment: Stability in mouse liver microsomes assessed as parent compound remaining after 30 mins
Type: ADME, Microsome
Conditions: read-out: Stability

SMILES | remaining at 0.5 h
CCCCc1nc(C(C)C)c(CC(=O)OC2CC2)c(=O)n1Cc1ccc(-c2ccccc2-c2noc(=O)[nH]2)cc1 | 11.4%
CC#CCOC(=O)Cc1c(C)nc(CCCC)n(Cc2ccc(-c3ccccc3-c3noc(=O)[nH]3)cc2)c1=O | 18.3%
CCCCc1nc(C(C)C)c(CC(=O)OC)c(=O)n1Cc1ccc(-c2ccccc2-c2noc(=O)[nH]2)cc1 | 9.4%
CCCCc1nc(C)c(CC(=O)OCC2CC2)c(=O)n1Cc1ccc(-c2ccccc2-c2noc(=O)[nH]2)cc1 | 13%
CCCCOC(=O)Cc1c(C(C)C)nc(CCCC)n(Cc2ccc(-c3ccccc3-c3noc(=O)[nH]3)cc2)c1=O | 21.6%
CCCCc1nc(C(C)C)c(CC(=O)OCC(C)C)c(=O)n1Cc1ccc(-c2ccccc2-c2noc(=O)[nH]2)cc1 | 13.7%
CCCCOC(=O)Cc1c(C)nc(CCCC)n(Cc2ccc(-c3ccccc3-c3noc(=O)[nH]3)cc2)c1=O | 10.2%
